The text below walks through data of patent publication US5504084A, “Pharmaceutical for the treatment of skin disorders” (priority 1994, dated 1996).

For series [1] the following is noted: European Patent 13,376; cited from earlier work.
For series [2], the system named is Normal human epidermal keratinocytes (NHEK). Put plainly: Inhibition of NHEK proliferation, BrdU incorporation (in vitro DNA synthesis). Type of series: cell-based. To be noted: 18-24 hours; for inhibition at 100 µM: 10^-4 M; for inhibition at 10 µM: 10^-5 M. The procedure: Cells: Normal human epidermal keratinocytes (NHEK, Clonetics Corp., San Diego, Calif.).
Labelling Reagent: Aqueous solution of 5-bromo-2'-deoxyuridine and 5-fluoro-2'-deoxyuridine (Amersham Corp., II).
Peroxidase-anti-mouse Immunoglobulin (Ig from pooled sheep antisera, Amersham Corp., II).
Peroxidase substrate: ABTS (2,2'-azino-di-(3-ethyl-benzthiazoline sulphonate)! Amersham Corp., II).
Compounds: Compounds are dissolved in absolute ethanol (final concentration≤0.1%). Various drug concentrations are prepared in thymidine free keratinocyte growth medium (KGM without hydrocortisone, Clonetics Corp., Calif.) in the presence of BrdU.
Dynatech MR 7000 microplate reader with 410 nm filter.
Keratinocytes are seeded into 96-well flat bottom (6.4 mm diameter) culture dishes at 5,000 cells/well. The cells are allowed to grow (2-3days) and then dosed with various concentrations of compounds prepared in KGM without thymidine, without hydrocortisone in the presence of BrdU (1:200). After 18-24 hours at 37° C., 5% CO2, the cells are washed with warm PBS and fixed with acetic acid/ethanol for 30 minutes at room temperature. After washing the wells with PBS/0.1% Tween-20, the remaining electrostatic sites on the polystyrene plates are blocked by 3% BSA in PBS/0.1% Tween-20. Anti-bromodeoxyuridine antibody solution with nuclease for denaturing DNA is added to each well and allowed to incubate for 2 hours at 37° C., 5% CO2. The plates were again washed with PBS/0.1% Tween-20 and then incubated at room temperature with peroxidase lined anti-mouse immunoglobulin (1:600). After washing off the second antibody, 1 mM ABTS substrate solution is added to all wells until the desired color intensity (green) is achieved. The color development is stopped by the addition of a Stopping Agent. The absorbance is then measured at 410 nm with a microplate reader using cells in wells not exposed to BrdU as blanks.
The intensity of the color reaction is proportional to the BrdU incorporated by proliferating cells. The amount of BrdU incorporated in treated cells in wells is compared to those of untreated controls as follows: [formula]
In general terms: Uptake of a labelled nucleoside into DNA is a usual measure of proliferation.

Series [3] in a line: Acute toxicity after intraperitoneal administration, NMRI mouse. To be noted: in vivo, ip, 3 weeks, Litchfield and Wilcox. The protocol:
The acute toxicity after intraperitoneal administration of the test substances was determined with NMRI mice (20 to 25 g) and SD rats (120 to 195 g). The test substance was suspended in a 1% strength sodium carboxymethylcellulose solution. The different dosages of the test substance were administered to the mice in a volume of 10 ml/kg of body weight and to the rats in a volume of 5 ml/kg of body weight. Per dosage, 10 animals were used. After 3 weeks, the acute toxicity was determined by the method of Litchfield and Wilcox.

In a further series the test system is psoriasis patients. To be noted: cited from earlier work.

Regarding `Cc1oncc1C(=O)Nc1ccc(C(F)(F)F)cc1` [Compound 1, N-(4-trifluoromethylphenyl)-5-methylisoxazole-4-carboxamide], the anti-inflammatory property entry in series [1] is “anti-inflammatory”. Also, in series [2], at 100 µM the inhibition was 87%; the inhibition (commonly the change of the read-out against control, counted positive when it falls) at 10 µM was 22%; the IC50 (commonly the concentration that inhibits the measured activity by half) was determined as 18 µM. In series [2] (10^-6 M), the inhibition at 1 µM was determined as 12%.

Regarding `C/C(O)=C(\C#N)C(=O)Nc1ccc(C(F)(F)F)cc1` [Compound 2, N-(4-trifluoromethylphenyl)-2-cyano-3-hydroxycrotonamide], in series [3], the LD50 (in general, the dose at which mortality reaches 50%) at 504 h was determined as 150 mg/kg. For the same compound, in series [2], at 100 µM the inhibition was 84%; testing at 10 µM gave an inhibition of 49%; the midpoint of inhibition, the IC50, lay at 15.5 µM.

As for cyclosporine A, in the series on psoriasis patients (in vivo, po), the “most limiting side effect” value is reported as “kidney dysfunction”; the side effects entry is “a number of side effects, most of which are transient and not serious”. The “success rate in severe psoriasis” value with psoriasis patients (oral, patients with severe psoriasis) is “high success rate”.
